Reference: patent publication US20220071932A1, “Compositions and Methods Against Stress-Induced Affective Disorders and Their Associated Symptoms” (The Trustees of Columbia University in the City of New York, priority 2019, published 2022)

Assays:
129S6/SvEv mice = assay: Anxiety-like behavior, summary of anxiety tests (OF, MB, EPM); type: in vivo; conditions: for behavior in all anxiety tests, with the exception of the time spent in the center of the OF: 5 min after context re-exposure 1; for behavior in all anxiety tests, with the exception of the time spent in the center of the OF / behavior in all anxiety tests: (R,S)-ketamine 30 mg/kg, FENM 20 mg/kg, vs saline; for behavior in all anxiety tests: 5 minutes prior to context re-exposure 1 (24 h after CFC)
Experimental: Testing was performed as previously described (47). Briefly, the maze is a plus-cross-shaped apparatus consisting of four arms, two open and two enclosed by walls, linked by a central platform at a height of 50 cm from the floor. Mice were individually placed in the center of the maze facing an open arm and were allowed to explore the maze for 5 min. The time spent in and the number of entries into the open arms was used as an anxiety index. Videos were scored using ANY-maze behavior tracking software (Stoelting, Wood Dale, Ill.).
The OF assay was administered as previously described (47). Briefly, motor activity was quantified in 4 Plexiglas open field boxes 43×43 cm^2 (MED Associates, Georgia, Vt.). Two sets of 16 pulse-modulated infrared photobeams on opposite walls 2.5-cm apart recorded x-y ambulatory movements. Activity chambers were computer interfaced for data sampling at 100-ms resolution. The computer defined grid lines that dividing center and surround regions, with the center square consisting of four lines 11 cm from the wall.
The MB assay was conducted in a clean cage (10.5 in×5.5 in) containing soft pliable Beta Chip bedding (Northeastern Products Corp, Warrensburg, N.Y.). The cage contained 16 marbles set up in 4 rows of 4 across. Mice were given 30 minutes to explore and bury. At the end of the assay, the percentage of marbles buried was calculated.

NMDARs = conditions: ex vivo autoradiography and immunohistochemical staining; cited from earlier work
[1] = tested on: NR2A subunit of the NMDAR; assay: Western blotting of hippocampus after fear memory recall; type: in vivo, mice; conditions: one week prior to CFC, (R,S)-ketamine 30 mg/kg, FENM 20 mg/kg, vs saline
Experimental: Samples from mouse hippocampus and prefrontal cortex were dissected, snap frozen, and stored at −80° C. Brain tissue was homogenized in RIPA buffer with protease inhibitor (Thermo Fisher Scientific, Waltham, Mass.; Roche, Basel, Switzerland) using a motorized pestle mixer (Argos Technologies, Vernon Hills, Ill.) and spun at 1000 g×14 minutes to remove cell debris. Protein concentration was determined using a Bradford protein assay (Bio-Rad, Hercules, Calif.). 4× Laemmli buffer and β-mercaptoethanol (Bio-Rad, Hercules, Calif.) was added to the samples, which were then boiled at 90° C. for five minutes. 50 μg of each sample was separated by SDS/PAGE, and proteins were transferred onto PVDF membrane (GE Healthcare Life Sciences, Marlborough, Mass.). Membranes were then blocked in 1×TBS with 0.1% Tween-20 and 5% BSA for 1 hr at RT. Incubation with primary antibodies was performed at 4° C. overnight (rabbit anti-β-tubulin, 1:10000, Abc am, Cambridge, UK, ab6046; rabbit anti-NR2A, 1:1000, Alomone Labs, Jerusalem, Israel, AGC-002; rabbit anti-NR2B, 1:600, Alomone Labs, Jerusalem, Israel, AGC-003; mouse anti-GluR1, 1:1000, Millipore Sigma, Burlington, Mass., MAB2263) in 1×TBS with 0.1% Tween-20 and 5% BSA. […]

[2] = tested on: depressive symptoms in patients; conditions: subanesthetic dose; patients; cited from earlier work
c-fos = c-fos immunohistochemistry in hippocampus after CFC re-exposure; type: in vivo, mice; conditions: one week prior to CFC, sacrificed one hour after re-exposure; (R,S)-ketamine 30 mg/kg, FENM 20 mg/kg; vs saline
Experimental: Immunohistochemistry was performed as previously described (46). Mice were deeply anesthetized, and brains were fixed and extracted using transcardial perfusion. For c-fos immunohistochemistry, floating sections were used. Sections were first rinsed three times in 1×PBS and then blocked in 1×PBS with 0.5% Triton X-100 and 10% NDS for 2 hours at room temperature (RT). Incubation with primary antibodies was performed at 4° C. overnight (rabbit anti-c-fos, 1:5000, SySy, Göettingen, Germany, 226 003) in 1×PBS with 0.5% Triton X-100. Sections were then washed three times in 1×PBS and incubated with secondary antibody (Alexa 647 anti-rabbit, 1:500, Thermo Fisher Scientific, Waltham, Mass. A32733) for 2 hours at RT. Sections were then washed three times in 1×PBS, mounted on slides, and coverslipped with ProLong Gold (Invitrogen, Carlsbad, Calif.).
Fluorescent confocal micrographs were captured with a Leica TCS SPE-II confocal microscope with LAS X software. Bilateral hippocampal sections were imaged throughout the rostro-caudal axis of the HPC using a 20× objective. Identification of hippocampal regions involved acquiring 6 dorsal and ventral sections per mouse brain slice at 20×. […]
An investigator blind to treatment groups used FIJI software to count c-fos^+ immunoreactive cells in the DG, CA3, and CA1 throughout the entire rostrocaudal axis of the HPC. Cells were counted bilaterally. […]

NMDAR = conditions: relative to (R,S)-ketamine; cited from earlier work

Structure (SMILES) | behavior in all anxiety tests, with the exception of the time spent in the center of the OF (129S6/SvEv mice) | behavior in all anxiety tests (129S6/SvEv mice) | [18F]-FENM colocalization with NMDARs when (R,S)-ketamine was administered (NMDARs) | NR2A expression in the hippocampus [1] | duration of relief of depressive symptoms [2] | time to relief of depressive symptoms after administration [2] [h] | c-fos expression in the ventral CA3 of the hippocampus (c-fos) | affinity as NMDAR antagonist (NMDAR) | Behavior: Anxiety-like (129S6/SvEv mice; Antidepressant (5 min after stress), dose 20 mg/kg) | Behavior: Anxiety-like (129S6/SvEv mice; Antidepressant (5 min after stress), dose 30 mg/kg) | Behavior: Anxiety-like (129S6/SvEv mice; Extinction (5 min after re-exposure 1), dose 20 mg/kg)
CNC1(c2ccccc2Cl)CCCCC1=O (racemic) [(R,S)-ketamine, reference compound] | did not alter behavior | did not alter behavior | colocalization with NMDARs was lost | comparable | up to 3 weeks | 2 | significantly increased c-fos expression | – | – | – | –
NC12CC3CC(C1)CC(CCF)(C3)C2 [FENM, 1-amino-3-fluoroethyl-adamantane] | did not alter behavior | did not alter behavior | – | comparable | – | – | – | lower affinity than (R,S)-ketamine | ↓ | ↓ | ↓
